According to paper PMC9411704, “Assessment of the Carcinogenic Potential of Pretomanid in Transgenic Tg.rasH2 Mice” (International Journal of Toxicology, 2022):

Test system: CHO-K1 cells
Assay: Chromosome aberration assay in CHO cells
Experimental: CHO-K1 cells (American Type Culture Collection) were exposed to pretomanid at 22.5 to 360 μg/mL for 4 hours with and without added S9 mix and for 20 hours without added S9 mix. All cells were harvested 20 hours after treatment initiation. The assay was performed using standard procedures, [13] including duplicate cultures and appropriate negative and positive controls. Under each set of conditions, three test concentrations were evaluated. The highest was the lowest precipitating concentration, and two additional lower concentrations also were evaluated.
After incubation, cells were harvested and placed on slides, which were examined microscopically to determine relative mitotic index and to evaluate metaphase spreads for structural or numerical chromosome aberrations. Where possible, 200 metaphase spreads were evaluated. The mean numbers of aberrations in various cultures were compared to reach conclusions about assay validity and clastogenic potential.

## O=[N+]([O-])c1cn2c(n1)OC[C@@H](OCc1ccc(OC(F)(F)F)cc1)C2 [Pretomanid, (6S)-2-nitro-6-{[4-(trifluoromethoxy)benzyl]oxy}-6,7-dihydro-5H-imidazo[2,1-b][1,3]oxazine]
22.5 to 360 μg/mL, 4 h ±S9, 20 h −S9
  Cytotoxicity in CHO cells: no cytotoxicity was observed
Any concentration, P>0.05
  Frequency of chromosome aberrations: did not significantly increase
Up to 360 μg/mL, 4 h ±S9, 20 h −S9
  Clastogenic potential in mammalian cells in vitro: negative
